{"source": "patent US12729377B2", "about": "“RNAi agents and compositions for inhibiting expression of angiopoietin-like 3 (ANGPTL3), and methods of use” (Arrowhead Pharmaceuticals, Inc., priority 2017, dated 2026)", "key": {"ANGPTL3 gene": {"test_system": "ANGPTL3 gene", "assay": "Example 10: serum HDL in mice", "format": "in vivo", "settings": "0.5 mg/kg single SC injection day 1, female C57bl/6 mice, n=3, ratio to D5W control", "protocol": "To assess the in vivo activity of further ANGPTL3 RNAi agents that are designed to target position 304 on the ANGPTL3 gene, six- to eight-week-old female C57bl/6 mice were used. Pre-dose serum samples were taken at day −1 after a four hour fast. At day 1, each mouse was given a single subcutaneous administration of 200 μl containing 0.5 mg/kg (mpk) of an ANGPTL3 RNAi agent in D5W (dextrose in 5% water), or control (D5W) with no RNAi agent, according to the dosing groups recited in Table 47.\nEach of the RNAi agents included a modified sequence and an N-acetyl-galactosamine-containing targeting ligand conjugated to the 5′ terminal end of the sense strand. (See Tables 3, 4, and 5 for modified sequences and targeting ligand structures). As noted above, each of the ANGPTL3 RNAi agents dosed in this study included nucleotide sequences designed to target the ANGPTL3 gene at position 304. The injections were performed between the skin and muscle (i.e. subcutaneous injections) into the loose skin over the neck and shoulder area. Three (3) mice in each group were tested (n=3). Serum was collected on days 8, 15, 22, 29, and for some groups on day 36 (i.e., Groups 1, 2, and 9-13 only). Mice were fasted for four hours prior to each collection. ANGPTL3 protein levels in serum were measured by ELISA assay (R&D Systems), according to the manufacturer's recommendations. Triglycerides, total cholesterol, high-density lipoprotein (HDL), and low-density lipoprotein (LDL) in serum were measured on a Cobas® Integra 400 (Roche Diagnostics), according to the manufacturer's recommendations.\nThe ANGPTL3 protein levels, triglyceride levels, total cholesterol levels, HDL levels, and LDL levels for each animal were normalized. For normalization, the level of ANGPTL3 protein, triglyceride, HDL, and total cholesterol, respectively, for each animal at a time point, was divided by the pre-treatment level of expression in that animal (in this case at day −1) to determine the ratio of expression “normalized to pre-treatment.” Expression at a specific time point was then normalized to the D5W control group by dividing the “normalized to pre-treatment” ratio for an individual animal by the mean “normalized to pretreatment” ratio of all mice in the D5W control group."}, "ANGPTL3 mRNA": {"test_system": "ANGPTL3 mRNA", "assay": "Example 12: liver ANGPTL3 mRNA by RT-qPCR in LDLR knockout mice", "format": "in vivo, LDLR KO mice", "settings": "for Avg Relative ANGPTL3 mRNA, Normalized to Control: normalized to Group 1 day 15", "text": "To evaluate the effect of RNAi agent administration in a disease model, mice having a genetic mutation for the LDL receptor (referred to herein as LDLR KO mice) were commercially obtained (The Jackson Laboratory). The LDLR KO mice are homozygous for the Ldlr^tm1Her mutation, and have elevated serum cholesterol levels, particularly when placed on a high fat diet. For three weeks prior to the onset of the study, thirty-nine (39) LDLR KO mice were placed on a high fat diet (Teklad Custom Diets TD.88137). An additional eight (8) LDLR KO mice were placed on a normal chow diet over the same three-week period. Pre-dose serum samples were taken on day −15 and day −1 after a four hour fast. At day 1, each mouse was given a single subcutaneous administration of 200 μl/30 g animal body weight containing the respective mg/kg dose of an ANGPTL3 RNAi agent in D5W (dextrose in 5% water), control (D5W) with no RNAi agent, or a control RNAi agent that included a nucleotide sequence designed to target the Hepatitis B Virus (HBV) genome. A second injection of the same formulation was administered to the animals on day 29. The dosing regimen for the study is recited in the following Table 60:\nEach mouse remained on its respective diet through the duration of study. The RNAi agent tested (AD05488) included a modified sequence and an N-acetyl-galactosamine-containing targeting ligand conjugated to the 5′ terminal end of the sense strand. (See Tables 3, […] modified sequences and targeting ligand structures). The injections were performed between the skin and muscle (i.e. subcutaneous injections) into the loose skin over the neck and shoulder area. Serum was collected on days 8, 15, 22, 29 (pre-second dose), 36, 43, 50, and 57. LDLR KO mice were fasted for four hours prior to each collection. On day 15, four (4) LDLR KO mice from Groups 1, 2, and 3 (i.e., the groups being administered the high fat “Western” diet) were sacrificed after serum collection, and on day 29, an additional four (4) LDLR KO mice from Groups 1, 2, and 3 were sacrificed after serum collection, for the purpose of performing mRNA assessments.\nAdditionally, ANGPTL3 mRNA levels were also assessed. On day 15, four (4) mice were sacrificed from each of Groups 1, 2, and 3. On day 29, an additional four (4) mice were sacrificed from each of Groups 1, 2, and 3. On day 57, all remaining animals from all Groups were sacrificed. At sacrifice, livers were harvested, and approximately 100 mg liver samples from the median lobes were collected and snap-frozen in liquid nitrogen for RNA isolation. Levels of ANGPTL3 mRNA in the mice livers were then measured by RT-qPCR, and normalized to the mRNA levels of the mice in Group 1 (high fat “Western” diet; D5W administration; day 15 sacrifice), the results of which are set forth in the following Table 66: […]"}}, "note": "In the oligonucleotide strings, read from the 5' end, every base follows the letter of its sugar. An asterisk marks phosphorothioate; unmarked linkages are phosphodiester. Other units and linkages are bracketed, terminal groups are in braces. A string of capitals states the bases alone. {NAG37} = tridentate N-acetyl-galactosamine targeting ligand, structure (NAG37)s; [invAb] = inverted abasic unit; m = 2'-O-methyl; f = 2'-fluoro"}
{"substance": "AD05488: RNAi agent duplex: antisense AM07235-AS, sense AM07234-SS (antisense mU*fA*mC*fUmGfAmUfCmAfAmAfUmAfUmGfUmUfGmAfG*mC; sense {NAG37}*[invAb]*mGmCmUmCmAmAmCmAfUfAfUmUmUmGmAmUmCmAmGmUmA*[invAb])", "values": [{"measurement": "Average HDL Normalized to Pre-Treatment and Control", "setting": "ANGPTL3 gene; Day 8", "result": 0.648}, {"measurement": "Average HDL Normalized to Pre-Treatment and Control", "setting": "ANGPTL3 gene; Day 15", "result": 0.807}, {"measurement": "Average HDL Normalized to Pre-Treatment and Control", "setting": "ANGPTL3 gene; Day 22", "result": 0.733}, {"measurement": "Average HDL Normalized to Pre-Treatment and Control", "setting": "ANGPTL3 gene; Day 29", "result": 0.746}, {"measurement": "Average HDL Normalized to Pre-Treatment and Control", "setting": "ANGPTL3 gene; Day 36", "result": 0.816}, {"measurement": "Avg Relative ANGPTL3 mRNA, Normalized to Control", "setting": "ANGPTL3 mRNA; 3.0 mg/kg days 1 and 29, high fat diet, day 57 sacrifice", "result": 0.024}, {"measurement": "Avg Relative ANGPTL3 mRNA, Normalized to Control", "setting": "ANGPTL3 mRNA; 3.0 mg/kg days 1 and 29, normal chow, day 57 sacrifice", "result": 0.060}, {"measurement": "Avg Relative ANGPTL3 mRNA, Normalized to Control", "setting": "ANGPTL3 mRNA; 3.0 mg/kg, high fat diet, day 15 sacrifice", "result": 0.019}, {"measurement": "Avg Relative ANGPTL3 mRNA, Normalized to Control", "setting": "ANGPTL3 mRNA; 3.0 mg/kg, high fat diet, day 29 sacrifice", "result": 0.032}, {"measurement": "reduction in ANGPTL3 mRNA levels", "setting": "ANGPTL3 mRNA; both high fat Western diet and normal chow-fed diet, LDLR KO mice", "result": "significant reduction"}]}
